Data from US20210299079A1, “MONOMETHYL FUMARATE-CARRIER CONJUGATES AND METHODS OF THEIR USE” (Flagship Pioneering Innovations V, Inc., priority 2018, published 2021).

Assays:
Format in all cases: cell-based
MIP-1α = test: Neutrophil Chemokine Production Assay: MIP-1α; conditions: human neutrophils, 12 h
Procedure: (§1) A volume 25 mL of human blood was layered over 15 mL of Histopaque®-1077 and centrifuged at 500 g, R^T, for 30 min with no break applied to the centrifuge. The PBMC band and Histopaque®-1077 layer were removed leaving behind the bottom red layer which was mixed with 40 mL of 1× red blood cell (RBC) lysis buffer (Sigma-Aldrich) was and split into two 50 mL tubes. The volume for both fractions was brought to 50 mL with RBC lysis buffer, mixed by inversion, and then incubated at RT for 10 min. Solutions were centrifuged at 250 g, for 10 min at RT and the supernatant liquids removed. The reddish pellets were re-suspended in 1 mL of RBC lysis buffer and combined. The cell suspension was incubated for 5 min at RT in RBC lysis buffer. After incubation 45 mL of Hanks Balanced Salt Solution with no calcium, magnesium or phenol red (HBSS—) was added, the cell suspension was spun (250 g for 10 min at RT), and supernatant liquids were removed. The white pellet was re-suspended in 1 mL of HBSS—, and cell counts were determined. The neutrophil cell suspension was brought to a concentration of 1.11e6 cells/mL in RPMI complete (Sigma-Aldrich), and 180 μL of cell suspension was transferred to all wells within a sterile 96-well tissue culture treated plate resulting in 2.0×10^5 cells/well. […] After incubation, 10 μL of 2 μg/mL LPS solution in RPMI complete was added to each well except for control wells, which received an additional 10 μL of media. Cells were incubated for 12 h (37° C., 5% CO2), after which plates were centrifuged at 250 g, RT, for 5 min and supernatant liquids were obtained and stored at −80° C. until analyzed via Luminex® Multiplex Assay for various chemokines and cytokines. Three data points were acquired from two different blood donors and averaged.

IL-8 = test: Neutrophil Chemokine Production Assay: IL-8; conditions: human neutrophils, 12 h
Procedure: as §1

MIP-1β = test: Neutrophil Chemokine Production Assay: MIP-1β; conditions: human neutrophils, 12 h
Procedure: as §1

IL-1β = test: Cytokine Release from Human PBMCs: IL-1β; conditions: LPS, 24 hours, Concentration 100 μM
Procedure: (§2) Human donor blood (8 mL) was collected in sodium citrate CPT tubes and centrifuged at 1,600×g for 20 minutes at room temperature. Buffy coat containing PBMCs was collected and transferred to a 50 mL conical tube containing 30 mL of RPMI-1640 medium at room temperature (supplemented with penicillin-streptomycin). PBMCs samples were centrifuged at 400×g for 10 minutes at 10° C. The pelleted PBMCs were washed twice in 10 ml of RPMI-1640 medium (supplemented with penicillin-streptomycin), then resuspended in RPMI-1640 medium (supplemented with penicillin-streptomycin, fetal bovine serum, and L-Glutamine). PBMCs were filtered through a 70 micron mesh to remove any cellular debris. […] PBMCs in a 96-well plate were rested for 30 minutes in a 37° C., 5% CO2 incubator, then subsequently treated with 10 μI of indicated compound. After 2 hours 10 μL of LPS (0111:64) 1 mg/mL was added to test wells. After 24 hours of incubation at 37° C., 5% CO2, 100 μL of cell supernatant was collected and transferred to a 96-well plate (non-tissue treated, flat bottom). The plate was centrifuged at 350×g for 5 minutes at room temperature, and then the clear supernatant transferred to a new 96-well plate (non-tissue treated, flat bottom). The remaining cells were tested for viability using CellTiter-Glo® Luminescent Cell Viability Assay (Promega). The supernatant was analyzed for TNFα, IL-6 and IL-1β (kit […] Systems), using Luminex Immunoassay Technology (MAGPIX System).

TNFα = test: Cytokine Release from Human PBMCs: TNFα; conditions: LPS, 24 hours, Concentration 100 μM
Procedure: as §2

IL-6 = test: Cytokine Release from Human PBMCs: IL-6; conditions: LPS, 24 hours, Concentration 100 μM
Procedure: as §2

Caco-2 colonocytes = test: Human Caco-2 Barrier Integrity Assay, Study 1; conditions: Caco-2, + cytokines (TNFα, IFNγ, IL-1β), 48 hours
Procedure: Caco-2 colonocytes were maintained at 37° C. and 5% CO2 in Dulbecco's Modified Eagle Medium (DMEM) and supplemented with 10% FBS, 1% NEAA, 1% penicillin-streptomycin. At 70-80% confluency, cells were trypsinized and seeded in 0.4 cm^2 transwell collagen I coated membranes with supplemented DMEM in both apical and basolateral compartments. […] After 48 hours, TEER readings were taken again and viability was measured by CellTiter 96® AQueous One Solution Cell Proliferation Assay (Promega).

naïve CD4+ T cells = test: Human Regulatory T Cell Differentiation Assay; conditions: 6 days; for Cell viability % DMSO: viability dye; for activity at 1 µM: IL-2, 1 μM
Procedure: Peripheral blood mononuclear cells (PBMCs) from whole blood donated by health volunteers were separated by Ficoll-Paque gradient centrifugation and naïve CD4^+ T cells were subsequently isolated using magnet beads (EasySep™ Human Naïve CD4^+ T Cell Isolation Kit, Cambridge, Mass.). For regulatory T cell (Treg) differentiation assay, naïve CD4^+ T cells were cultured (1-10×10^4 cells) in CTS OpTmizer medium for 6 days and stimulated with 5 ng/ml TGF-β, 100 U/ml IL-2, and ImmunoCult™ Human […] T Cell Activator; Stemcell #10990) with/without our Compounds. Cell viability was determined using a viability dye (eBioscience Fixable Viability Dye eFluor 780: ThermoFisher 65-0865-14) at 1:500 dilution. The cells were gated for Treg, defined as Live, CD11c^−, CD14^−, CD19^−, CD8^−, CD4^+, CD3^+, CD25^+, FOXP3^+. Percent (%) Tregs were calculated as percentage of CD4^+, CD25^+, FOXP3^+ cells over total CD4^+ T cells. Statistical analysis was performed with GraphPad Prism Software Using One-Way ANOVA.

[1] = Homo sapiens, 144 h, TGF-β, read-out: Treg induction % DMSO

CCCC(=O)O [butyrate]
% MIP-1α (Vehicle + LPS = 100%) (MIP-1α; Conc. 500.0 μM): +++ (+++ = <50% Vehicle)
% MIP-1α (Vehicle + LPS = 100%) (MIP-1α; Conc. 1000.0 μM): +++ (+++ = <50% Vehicle)
% IL-8 (Vehicle + LPS = 100%) (IL-8; Conc. 500.0 μM): ++ (++ = <70% Vehicle)
% IL-8 (Vehicle + LPS = 100%) (IL-8; Conc. 1000.0 μM): ++ (++ = <70% Vehicle)
% MIP-1β (DMSO + LPS = 100%) (MIP-1β; Conc. 500.0 μM): +++ (+++ = <50% Vehicle)
% MIP-1β (DMSO + LPS = 100%) (MIP-1β; Conc. 1000.0 μM): +++ (+++ = <50% Vehicle)
IL1β % DMSO control (IL-1β): − ((−) >110% DMSO)
TNFα % of DMSO control (TNFα): ++ ((++) <50% DMSO)
IL6 % DMSO control (IL-6): + ((+) 50% > <90% DMSO)
% Change in TEER from DMSO (Caco-2 colonocytes; 1 mM): − (<125%: −)
% Change in TEER from DMSO (Caco-2 colonocytes; 3 mM): − (<125%: −)
% Change in TEER from DMSO (Caco-2 colonocytes; 5 mM): ++ (150% > <200%: ++)

O=c1c(O)c(-c2ccc(O)c(O)c2)oc2cc(O)cc(O)c12 [quercetin]
% MIP-1α (Vehicle + LPS = 100%) (MIP-1α; Conc. 0.1 μM): − (− = >90% Vehicle)
% MIP-1α (Vehicle + LPS = 100%) (MIP-1α; Conc. 1.0 μM): − (− = >90% Vehicle)
% IL-8 (Vehicle + LPS = 100%) (IL-8; Conc. 0.1 μM): − (− = >90% Vehicle)
% IL-8 (Vehicle + LPS = 100%) (IL-8; Conc. 1.0 μM): − (− = >90% Vehicle)
Cell viability % DMSO (naïve CD4+ T cells; 100 nM): = (90% > <110%: =)
Cell viability % DMSO (naïve CD4+ T cells; 1 μM): = (90% > <110%: =)
activity at 0.1 µM (naïve CD4+ T cells; Homo sapiens, 144 h, TGF-β, IL-2, 100 nM, read-out: Treg induction % DMSO): 90 to 110%
activity at 1 µM (naïve CD4+ T cells; [1]): 90 to 110%
% MIP-1β (DMSO + LPS = 100%) (MIP-1β; Conc. 0.1 μM): − (− = >90% Vehicle)
% MIP-1β (DMSO + LPS = 100%) (MIP-1β; Conc. 1.0 μM): − (− = >90% Vehicle)
IL1β % DMSO control (IL-1β): + ((+) 50% > <90% DMSO)
TNFα % of DMSO control (TNFα): + ((+) 50% > <90% DMSO)
IL6 % DMSO control (IL-6): + ((+) 50% > <90% DMSO)
% Change in TEER from DMSO (Caco-2 colonocytes; 100 nM): − (<125%: −)
% Change in TEER from DMSO (Caco-2 colonocytes; 1 μM): + (125% > <150%: +)

Oc1ccc(C=Cc2cc(O)cc(O)c2)cc1 [resveratrol]
% MIP-1α (Vehicle + LPS = 100%) (MIP-1α; Conc. 10.0 μM): + (+ = <90% Vehicle)
% IL-8 (Vehicle + LPS = 100%) (IL-8; Conc. 10.0 μM): − (− = >90% Vehicle)
Cell viability % DMSO (naïve CD4+ T cells; 1 μM): − (<90%: −)
Cell viability % DMSO (naïve CD4+ T cells; 10 μM): − (<90%: −)
activity at 1 µM (naïve CD4+ T cells; [1]): 110 to 130%
activity at 10 µM (naïve CD4+ T cells; Homo sapiens, 144 h, TGF-β, IL-2, 10 μM, read-out: Treg induction % DMSO): 110 to 130%
% MIP-1β (DMSO + LPS = 100%) (MIP-1β; Conc. 10.0 μM): ++ (++ = <70% Vehicle)
IL1β % DMSO control (IL-1β): = ((=) 90% > <110% DMSO)
TNFα % of DMSO control (TNFα): + ((+) 50% > <90% DMSO)
IL6 % DMSO control (IL-6): + ((+) 50% > <90% DMSO)
% Change in TEER from DMSO (Caco-2 colonocytes; 10 μM): − (<125%: −)
% Change in TEER from DMSO (Caco-2 colonocytes; 100 μM): +++ (200%>: +++)

CC(O)CC(=O)O (stereo not drawn) [β-hydroxybutyrate]
IL1β % DMSO control (IL-1β): − ((−) >110% DMSO)
TNFα % of DMSO control (TNFα): − ((−) >110% DMSO)
IL6 % DMSO control (IL-6): = ((=) 90% > <110% DMSO)
% Change in TEER from DMSO (Caco-2 colonocytes; 200 μM): + (125% > <150%: +)
% Change in TEER from DMSO (Caco-2 colonocytes; 2 mM): − (<125%: −)
